ChEMBL document CHEMBL1201862, “PubChem BioAssay data set” (2004)
The source made the active and inactive calls.

Columns and labels:
[1] = molecular target: Arf-GAP with SH3 domain, ANK repeat and PH domain-containing protein 1 (Homo sapiens, UniProt Q9ULH1); format: functional;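 further: biochemical fluorescence polarization dose–response screen measuring inhibition of ASAP1; ASAP1 GAP domain stimulating GTP hydrolysis by truncated human ARF1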
[2] = molecular target: ADP-ribosylation factor GTPase-activating protein 1 (Rattus norvegicus, UniProt Q62848); assay: Fluorescence polarization-based biochemical high throughput dose response screening assay to identify inhibitors of ADP-ribosylation factor GTPase activating protein 1 (ARFGAP1).; format: functional
[3] = molecular target: T1, Aminopeptidase N (Plasmodium falciparum FcB1/Columbia, UniProt O96935); assay: P. falciparum M1AAP inhibitors, biochemical, fluorogenic H-Leu-NHMec substrate, 1536-well (AID 1445); set-up: species or system Plasmodium falciparum 3D7, 3D7
T1 sequence (O96935 whole entry): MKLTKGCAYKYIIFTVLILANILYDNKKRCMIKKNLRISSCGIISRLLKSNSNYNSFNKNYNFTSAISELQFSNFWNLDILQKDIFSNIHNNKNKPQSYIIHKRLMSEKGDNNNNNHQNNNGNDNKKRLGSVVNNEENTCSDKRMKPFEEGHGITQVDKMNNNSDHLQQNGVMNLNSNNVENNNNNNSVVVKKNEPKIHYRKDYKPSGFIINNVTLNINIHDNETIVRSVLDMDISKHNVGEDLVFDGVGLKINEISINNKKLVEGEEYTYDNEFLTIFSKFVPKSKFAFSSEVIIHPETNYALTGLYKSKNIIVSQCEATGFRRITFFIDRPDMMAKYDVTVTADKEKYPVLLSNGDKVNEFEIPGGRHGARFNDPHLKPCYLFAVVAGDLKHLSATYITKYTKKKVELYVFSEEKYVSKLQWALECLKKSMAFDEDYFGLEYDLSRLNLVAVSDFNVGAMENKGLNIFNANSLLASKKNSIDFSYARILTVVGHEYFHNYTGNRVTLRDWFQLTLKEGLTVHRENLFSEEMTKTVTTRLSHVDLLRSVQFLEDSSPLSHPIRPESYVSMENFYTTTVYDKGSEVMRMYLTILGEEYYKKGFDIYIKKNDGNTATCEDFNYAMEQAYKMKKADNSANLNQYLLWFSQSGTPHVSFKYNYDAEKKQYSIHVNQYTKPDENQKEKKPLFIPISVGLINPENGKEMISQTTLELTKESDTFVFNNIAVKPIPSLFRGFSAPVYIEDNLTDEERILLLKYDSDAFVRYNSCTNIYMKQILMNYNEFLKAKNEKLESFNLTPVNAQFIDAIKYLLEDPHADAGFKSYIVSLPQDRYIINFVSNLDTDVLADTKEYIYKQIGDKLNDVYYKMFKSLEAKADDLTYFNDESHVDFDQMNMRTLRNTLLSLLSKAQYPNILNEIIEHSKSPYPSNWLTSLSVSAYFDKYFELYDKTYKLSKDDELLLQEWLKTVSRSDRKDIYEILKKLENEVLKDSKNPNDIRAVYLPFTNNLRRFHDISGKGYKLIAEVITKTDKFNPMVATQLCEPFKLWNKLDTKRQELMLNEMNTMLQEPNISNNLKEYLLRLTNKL

[4] = molecular target: Long-chain-fatty-acid--AMP ligase FadD28 (Mycobacterium tuberculosis, UniProt P9WQ59); assay: Fluorescence polarization aasay to screen for inhibitors that compete for the binding of FadD28 to a bisubstrate Measured in Biochemical System Using Plate Reader - 2147-01_Inhibitor_Dose_CherryPick_Activity.; format: functional, Mycobacterium tuberculosis H37Rv
[5] = molecular target: Kallikrein-7 (Homo sapiens, UniProt P49862); assay: Fluorescence Intensity-based biochemical primary high throughput dose response assay to identify activators of kallikrein-7 (K7) zymogen.
[6] = EDANS-DABCYL fluorescence interference, concentration series, dose response, artefact control for kallikrein-7 zymogen activator project, biochemical, fluorescence intensity, triplicate (AID 720493)
[7] = molecular target: T2, Protein skinhead-1 (Caenorhabditis elegans, UniProt P34707); format: functional
T2 sequence (P34707 whole entry): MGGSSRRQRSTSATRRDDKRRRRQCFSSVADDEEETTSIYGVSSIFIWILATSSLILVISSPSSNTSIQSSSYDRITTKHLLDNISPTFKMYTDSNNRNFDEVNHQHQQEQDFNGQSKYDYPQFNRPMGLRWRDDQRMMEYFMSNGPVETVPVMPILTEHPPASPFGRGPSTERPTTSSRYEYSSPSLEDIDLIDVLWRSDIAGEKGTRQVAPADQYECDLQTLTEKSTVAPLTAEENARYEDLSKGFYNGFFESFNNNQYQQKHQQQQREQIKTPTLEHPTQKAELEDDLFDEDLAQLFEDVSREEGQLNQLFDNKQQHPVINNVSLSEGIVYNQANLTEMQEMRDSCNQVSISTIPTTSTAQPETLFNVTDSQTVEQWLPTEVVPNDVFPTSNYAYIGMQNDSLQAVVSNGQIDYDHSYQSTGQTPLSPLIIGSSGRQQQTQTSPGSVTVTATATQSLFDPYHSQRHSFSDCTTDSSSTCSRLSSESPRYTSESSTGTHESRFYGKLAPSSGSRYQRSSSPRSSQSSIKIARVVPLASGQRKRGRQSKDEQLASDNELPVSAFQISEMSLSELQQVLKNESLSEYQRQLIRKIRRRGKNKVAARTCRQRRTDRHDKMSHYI

[8] = molecular target: Botulinum neurotoxin type F (Clostridium botulinum, UniProt P30996); assay: High-throughput multiplex microsphere dose response for inhibitors of toxin protease, specifically Botulinum neurotoxin light chain F protease, compounds from Cherry Pick 02.; format: functional; conditions: read-out: EC50_MICROM
[9] = system: Vero; assay: Vero cell toxicity, dose response, cytotoxicity control, plate reader, cherry-pick samples (AID 687020); format: functional, cell-based; conditions: Chlorocebus sabaeus
[10] = HEK293 cell cytotoxicity, dose response, cytotoxicity control, cherry-picks, set 5 (AID 1053117); format: functional, cell-based
[11] = molecular target: Fructose-bisphosphate aldolase (Mycobacterium tuberculosis, UniProt P9WQA3); assay: Fluorescence-based biochemical high throughput dose response assay for inhibitors of the fructose-bisphosphate aldolase (FBA) of M. tuberculosis.; format: functional
[12] = molecular target: T3, Beta-2 adrenergic receptor (Homo sapiens, UniProt P07550); assay: beta2AR agonists driving receptor internalization, dose response, cell-based, FAP fluorogen, flow cytometry, cherry pick 1 (AID 588763); format: functional
[13] = molecular target: T3, Beta-2 adrenergic receptor; assay: Dose response for HTS for Beta-2AR agonists via FAP method from Powderset3.; format: functional
[14] = molecular target: Protein Wnt-3a (Mus musculus, UniProt P27467); assay: SAR analysis of small molecule antagonists of Gli-SUFU in a Wnt3a luminescent reporter assay.; format: functional
[15] = A549 cell cytotoxicity, dose response, cytotoxicity control, CellTiter-Glo luminescence, dry powder, set 3 (AID 743146); format: functional, cell-based

T3 sequence (P07550 whole entry): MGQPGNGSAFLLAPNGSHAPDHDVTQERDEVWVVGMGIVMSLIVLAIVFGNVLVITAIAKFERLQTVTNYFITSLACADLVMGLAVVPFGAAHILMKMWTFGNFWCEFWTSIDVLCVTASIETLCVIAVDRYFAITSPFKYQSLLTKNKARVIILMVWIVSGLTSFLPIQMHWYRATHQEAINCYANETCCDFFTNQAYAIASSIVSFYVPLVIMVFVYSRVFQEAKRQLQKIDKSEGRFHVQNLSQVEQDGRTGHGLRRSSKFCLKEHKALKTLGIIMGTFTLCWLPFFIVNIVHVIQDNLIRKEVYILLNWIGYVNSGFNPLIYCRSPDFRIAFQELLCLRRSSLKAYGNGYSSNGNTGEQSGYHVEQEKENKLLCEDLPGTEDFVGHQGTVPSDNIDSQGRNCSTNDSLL
Chain of Long-chain-fatty-acid--AMP ligase FadD28 (P9WQ59 whole entry): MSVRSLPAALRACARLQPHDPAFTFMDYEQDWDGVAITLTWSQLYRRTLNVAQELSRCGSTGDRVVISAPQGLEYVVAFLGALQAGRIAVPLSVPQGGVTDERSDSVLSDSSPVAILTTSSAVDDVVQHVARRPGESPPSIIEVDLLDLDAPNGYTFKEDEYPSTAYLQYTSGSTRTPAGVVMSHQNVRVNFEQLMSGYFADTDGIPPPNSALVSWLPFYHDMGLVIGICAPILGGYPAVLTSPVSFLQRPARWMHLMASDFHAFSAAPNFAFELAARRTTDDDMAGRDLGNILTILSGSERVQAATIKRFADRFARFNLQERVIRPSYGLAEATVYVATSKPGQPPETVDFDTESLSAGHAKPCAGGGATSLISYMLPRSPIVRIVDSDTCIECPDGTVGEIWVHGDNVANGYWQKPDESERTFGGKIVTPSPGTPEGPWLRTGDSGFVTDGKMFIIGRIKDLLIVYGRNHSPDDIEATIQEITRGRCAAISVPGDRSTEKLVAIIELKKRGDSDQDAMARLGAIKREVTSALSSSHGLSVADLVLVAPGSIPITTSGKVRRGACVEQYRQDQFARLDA
Chain of Fructose-bisphosphate aldolase (P9WQA3 whole entry): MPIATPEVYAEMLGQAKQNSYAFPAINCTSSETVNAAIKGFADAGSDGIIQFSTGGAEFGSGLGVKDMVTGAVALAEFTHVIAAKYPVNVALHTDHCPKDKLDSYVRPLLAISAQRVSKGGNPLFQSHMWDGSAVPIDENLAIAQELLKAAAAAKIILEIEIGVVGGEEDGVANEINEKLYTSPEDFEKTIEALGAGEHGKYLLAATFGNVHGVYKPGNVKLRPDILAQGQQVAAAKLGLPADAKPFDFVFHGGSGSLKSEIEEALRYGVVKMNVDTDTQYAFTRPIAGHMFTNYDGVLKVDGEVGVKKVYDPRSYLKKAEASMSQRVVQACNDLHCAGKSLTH
Chain of Arf-GAP with SH3 domain, ANK repeat and PH domain-containing protein 1 (Q9ULH1 whole entry, the tested form may be a part): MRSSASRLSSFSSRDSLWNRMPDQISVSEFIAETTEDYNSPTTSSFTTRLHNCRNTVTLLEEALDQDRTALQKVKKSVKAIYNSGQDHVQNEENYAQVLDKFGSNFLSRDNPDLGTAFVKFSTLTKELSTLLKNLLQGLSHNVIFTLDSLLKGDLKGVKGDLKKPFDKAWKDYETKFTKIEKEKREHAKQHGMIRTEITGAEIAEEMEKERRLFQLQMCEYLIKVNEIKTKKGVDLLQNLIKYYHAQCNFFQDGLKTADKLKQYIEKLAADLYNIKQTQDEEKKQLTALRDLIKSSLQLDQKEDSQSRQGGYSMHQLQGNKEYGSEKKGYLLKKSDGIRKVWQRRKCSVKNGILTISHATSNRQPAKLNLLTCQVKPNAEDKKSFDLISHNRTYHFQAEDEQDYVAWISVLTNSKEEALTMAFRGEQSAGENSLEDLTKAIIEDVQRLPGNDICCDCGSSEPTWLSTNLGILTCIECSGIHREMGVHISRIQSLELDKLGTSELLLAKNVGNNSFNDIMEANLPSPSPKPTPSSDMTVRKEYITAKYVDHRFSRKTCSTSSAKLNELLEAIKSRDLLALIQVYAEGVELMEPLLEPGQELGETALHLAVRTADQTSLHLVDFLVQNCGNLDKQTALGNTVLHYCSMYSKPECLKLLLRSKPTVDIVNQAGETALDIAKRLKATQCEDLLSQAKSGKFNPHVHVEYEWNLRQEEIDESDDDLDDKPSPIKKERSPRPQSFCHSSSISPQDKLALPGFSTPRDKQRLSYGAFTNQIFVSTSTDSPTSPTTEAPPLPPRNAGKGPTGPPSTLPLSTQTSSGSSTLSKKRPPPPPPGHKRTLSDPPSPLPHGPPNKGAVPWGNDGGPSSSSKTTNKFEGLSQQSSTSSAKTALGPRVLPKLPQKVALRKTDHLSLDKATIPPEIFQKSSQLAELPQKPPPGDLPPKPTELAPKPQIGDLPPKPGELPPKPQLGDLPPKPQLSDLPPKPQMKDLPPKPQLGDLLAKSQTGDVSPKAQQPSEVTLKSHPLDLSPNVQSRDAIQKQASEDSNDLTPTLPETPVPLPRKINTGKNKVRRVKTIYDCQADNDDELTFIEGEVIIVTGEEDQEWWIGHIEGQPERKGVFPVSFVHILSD
Chain of Botulinum neurotoxin type F (P30996 1-436 limits assumed): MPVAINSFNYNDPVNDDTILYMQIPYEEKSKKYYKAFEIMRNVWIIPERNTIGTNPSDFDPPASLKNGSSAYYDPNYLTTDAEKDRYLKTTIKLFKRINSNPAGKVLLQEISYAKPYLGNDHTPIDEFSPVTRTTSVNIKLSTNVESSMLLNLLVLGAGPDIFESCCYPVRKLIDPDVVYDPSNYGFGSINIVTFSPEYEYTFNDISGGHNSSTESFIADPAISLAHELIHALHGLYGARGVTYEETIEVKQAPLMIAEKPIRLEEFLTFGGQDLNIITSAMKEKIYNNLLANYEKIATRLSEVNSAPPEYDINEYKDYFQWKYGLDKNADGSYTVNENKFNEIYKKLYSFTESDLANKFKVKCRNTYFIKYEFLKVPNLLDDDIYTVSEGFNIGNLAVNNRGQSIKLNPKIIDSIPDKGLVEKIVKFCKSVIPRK
Chain of Kallikrein-7 (P49862 whole entry): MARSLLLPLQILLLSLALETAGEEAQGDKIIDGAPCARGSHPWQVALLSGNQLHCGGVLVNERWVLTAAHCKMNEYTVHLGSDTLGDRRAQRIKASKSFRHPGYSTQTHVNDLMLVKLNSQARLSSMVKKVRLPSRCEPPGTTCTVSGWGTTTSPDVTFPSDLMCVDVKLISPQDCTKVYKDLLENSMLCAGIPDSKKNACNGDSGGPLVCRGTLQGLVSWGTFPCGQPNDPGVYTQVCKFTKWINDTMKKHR
Chain of Protein Wnt-3a (P27467 whole entry): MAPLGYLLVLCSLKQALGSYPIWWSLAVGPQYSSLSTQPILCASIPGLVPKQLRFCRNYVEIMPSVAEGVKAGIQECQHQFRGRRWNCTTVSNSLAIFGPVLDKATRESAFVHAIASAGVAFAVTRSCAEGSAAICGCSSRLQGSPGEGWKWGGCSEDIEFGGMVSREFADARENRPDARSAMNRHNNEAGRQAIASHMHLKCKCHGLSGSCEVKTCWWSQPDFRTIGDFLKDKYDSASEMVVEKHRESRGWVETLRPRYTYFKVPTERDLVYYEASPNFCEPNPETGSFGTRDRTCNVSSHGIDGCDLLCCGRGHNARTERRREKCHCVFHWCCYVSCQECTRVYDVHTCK
Chain of ADP-ribosylation factor GTPase-activating protein 1 (Q62848 whole entry): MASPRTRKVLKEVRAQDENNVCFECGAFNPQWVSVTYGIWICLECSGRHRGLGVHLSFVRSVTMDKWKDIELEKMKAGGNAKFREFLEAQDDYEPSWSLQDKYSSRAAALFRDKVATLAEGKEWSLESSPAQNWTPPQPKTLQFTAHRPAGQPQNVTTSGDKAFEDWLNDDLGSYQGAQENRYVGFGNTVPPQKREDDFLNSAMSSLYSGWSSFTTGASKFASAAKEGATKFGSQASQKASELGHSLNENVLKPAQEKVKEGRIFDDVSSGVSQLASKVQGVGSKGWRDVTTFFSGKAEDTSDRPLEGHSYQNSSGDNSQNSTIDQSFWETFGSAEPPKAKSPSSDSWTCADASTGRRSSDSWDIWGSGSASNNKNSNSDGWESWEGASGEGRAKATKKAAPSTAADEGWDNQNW

SMILES: COc1ccccc1C=NNC(=O)NN=Cc1ccccc1OC
- IC50 [1]: 23.2 µM (inactive)
- IC50 [2]: 25.6 µM (inactive)

SMILES: CCOc1ccc(-n2c(=S)sc3c(O)nc(SCC(=O)N4CCC(C)CC4)nc32)cc1
- IC50 [3]: 30 µM (active)
- AC50 [4]: 99 µM (active)

SMILES: COc1cc2c(cc1OC)C(=O)CC(C)S2 (stereo not given)
- EC50 [5]: 8.28 µM (active)
- EC50 [6]: > 7.73 µM (active)

SMILES: CCC(=O)NCCn1c(C)cc2ccccc21
- IC50 [7]: > 100 µM (inactive)
- EC50 [8]: > 20 µM (inactive)

SMILES: CC(=O)Nc1cccc(OCCCNC(=O)c2ccc(C(C)(C)C)cc2)c1
- AC50 [9]: 35.3 µM (active)

SMILES: O=S(=O)(c1cccc(F)c1)N1CC[C@@H]2[C@H]1c1cc(-c3cccc(F)c3)ccc1N[C@@H]2CO
- AC50 [10]: 33.9 µM (active)

SMILES: O=C(c1cc2c(=O)n3ccccc3nc2s1)N1CCN(Cc2ccc3c(c2)OCO3)CC1
- IC50 [11]: > 1.11 µM (active)
- EC50 [12]: 0.0693 µM (active)
- EC50 [13]: 0.00977 µM (active)

SMILES: O=C(Nc1cc(N2CCCCC2)ncn1)c1ccccc1C(F)(F)F
- IC50 [14]: 6.48 µM (active)

SMILES: O=C(CCNC(=O)c1ccc(Cl)cc1)N[C@H]1CCCc2ccccc21
- AC50 [15]: > 52 µM (inactive)
